Source: patent publication US10632181B2, “Composition, containing RGD motif-containing peptide or fragment thereof, for treating burns and glaucoma, alleviating skin wrinkles, and promoting hair growth” (HUONS CO., LTD., priority 2014, dated 2020)

Tests used:
Format in all cases: in vivo, Women aged 30-65
[1] = system: wrinkles around eyes; test: Wrinkle extent around eyes, skin replica, Visiometer SV600; set-up: R3 numerical value (average roughness) / R1 numerical value (skin roughness) / R4 numerical value (smoothness depth) / R5 numerical value (arithmetic average roughness): unit not given here
Protocol: The extent of wrinkles around eyes was measured using equipment. A target site to measure the wrinkle extent was regions around the eyes of the subjects, and the left side and the right side of the face were set as a measurement site. To measure the wrinkle extent, the subjects were allowed to wash the measurement site with water, and take a rest for 30 minutes in the waiting room under constant temperature and constant humidity conditions of indoor temperature 20-25° C. and humidity 40-60% to acclimate the skin surface temperature and humidity to the environment of the measurement space, and were not permitted to drink water during the rest. For objective measurement, measurements were performed by one researcher, and the same site was measured at each time of the first visit before use and the second and third visits in 2 and 4 weeks after use. Transparency profilometry analysis was performed using Visiometer SV600 (Courage-Khazaka electronic GmbH, Germany) on skin replica of the site to which test product and control product were applied before use and 2 and 4 weeks after use, and to identify if there is any difference in each of control group and experimental group after use, a change (%) in R1, R2, R4, R5 measurement values in 2 and 4 weeks after use relative to before use was analyzed.

[2] = system: wrinkles around eyes; test: Survey of subjects about wrinkle reduction effectiveness
Protocol: Furthermore, surveying the subjects about effectiveness was conducted. The subjects were asked to personally make responses about the extent to which the subjects felt that wrinkles reduced after use of test product using 5 levels: better (4), a little bit better (3), no change (2), a little bit worse (1), worse (0). The researcher determined if test product has efficacy by calculating the percentage of the number of subjects for each response.

[3] = system: wrinkles around eyes; test: Expert visual assessment of wrinkles (global photodamage score); details: for expert visual assessment score: severity 0-7
Protocol: Furthermore, visual assessment was performed. At each visit before and after use, experts assessed the wrinkle extent by scoring using global photodamage score (Br J Dermatol. 2010; 162(3):497-502). To verify if there is any difference in each of control group and experimental group in 4 weeks after use, a change (%) in visual assessment scores of 2 weeks and 4 weeks after use relative to before use was analyzed. The visual assessment scores are as follows (Table 18): […]

[4] = system: wrinkles around eyes; test: Wrinkle extent around eyes, skin replica, Visiometer SV600; set-up: R3 numerical value (average roughness): unit not given here; details: Before use
[5] = system: wrinkles around eyes; test: Wrinkle extent around eyes by 3D imaging (PRIMOS Premium); details: for Rmax numerical value (maximum height of wrinkle profile) / Rp numerical value (maximum profile peak height) / Rv numerical value (maximum profile valley depth): in µm (unit assumed)
Protocol: Furthermore, the wrinkle extent was measured by 3D imaging. A target site to measure the wrinkle extent was regions around the eyes of the subjects, and the right side of the face was set as a measurement site. To measure the wrinkle extent, the subjects were allowed to wash the measurement site with water, and take a rest for 30 minutes in the waiting room under constant temperature constant humidity conditions of indoor temperature 20-25° C. and humidity 40-60% to acclimate the skin surface temperature and humidity to the environment of the measurement space, and were not permitted to drink water during the rest. For objective measurement, measurements were performed by one researcher, and the same site was measured at each time of the first visit before use and the second and third visits in 2 and 4 weeks after use. Before use and in 2 and 4 weeks after use, images of the site to which the test product (HU022 (SEQ ID NO:1)) was applied were formed using 3D skin imaging machine (PRIMOS Premium), and to verify if there is any difference in each of control group and experimental group in 4 weeks after use, wrinkle parameters, Ra, Rmax, Rt, Rp, Rv values, in the stored images of 2 weeks and 4 weeks after use relative to before use were analyzed.

[6] = response 2 (fair), 4 weeks after use
[7] = response 3 (good), 4 weeks after use

Substance: HU022: polypeptide consisting of 452nd-509th amino acids of ADAM 15 (GenBank AAH14566.1), 58 amino acids; commercial product (EYEGENE Inc.)
- R1 numerical value (skin roughness) ([1]; 2 weeks after use, twice daily): 54.59 ± 10.99
- R2 numerical value (maximum roughness) ([1]; 2 weeks after use, twice daily): 36.87 ± 6.02
- R3 numerical value (average roughness) ([1]; 2 weeks after use, twice daily): 24.41 ± 4.16
- R4 numerical value (smoothness depth) ([1]; 2 weeks after use, twice daily): 23.64 ± 5.11
- R5 numerical value (arithmetic average roughness) ([1]; 2 weeks after use, twice daily): 9.44 ± 2.44
- R1 numerical value (skin roughness) ([1]; 4 weeks after use, twice daily): 51.06 ± 19.28
- R2 numerical value (maximum roughness) ([1]; 4 weeks after use, twice daily): 29.16 ± 5.12
- R3 numerical value (average roughness) ([1]; 4 weeks after use, twice daily): 18.62 ± 2.79
- R4 numerical value (smoothness depth) ([1]; 4 weeks after use, twice daily): 22.94 ± 10.03
- R5 numerical value (arithmetic average roughness) ([1]; 4 weeks after use, twice daily): 10.10 ± 5.97
- R1 numerical value (skin roughness) ([1]; Before use): 76.23 ± 12.15
- R2 numerical value (maximum roughness) ([1]; Before use): 54.26 ± 5.70
- R4 numerical value (smoothness depth) ([1]; Before use): 30.41 ± 7.01
- R5 numerical value (arithmetic average roughness) ([1]; Before use): 13.57 ± 3.65
- Change(%) in R1 ([1]; Before use-2 weeks after use): −28.38%
- Change(%) in R4 ([1]; Before use-2 weeks after use): −22.27%
- Change(%) in R5 ([1]; Before use-2 weeks after use): −30.43%
- Change(%) in R1 ([1]; Before use-4 weeks after use): −33.02%
- Change(%) in R3 ([1]; Before use-4 weeks after use): −45.62%
- Change(%) in R4 ([1]; Before use-4 weeks after use): −24.57%
- Change(%) in R5 ([1]; Before use-4 weeks after use): −26.52%
- Number of subjects, wrinkle reduction survey ([2]; response 0 (very bad), 4 weeks after use): 0
- Number of subjects, wrinkle reduction survey ([2]; response 1 (bad), 4 weeks after use): 0
- Number of subjects, wrinkle reduction survey [2, 6]: 1
- Percentage of subjects, wrinkle reduction survey [2, 6]: (16.7) %
- Number of subjects, wrinkle reduction survey [2, 7]: 5
- Percentage of subjects, wrinkle reduction survey [2, 7]: (83.3) %
- Number of subjects, wrinkle reduction survey ([2]; response 4 (very good), 4 weeks after use): 0
- Mean of wrinkle reduction survey response ([2]; scale 0-4, 4 weeks after use): 2.83
- survey assessment about wrinkle reduction, test product versus control product ([2]; third visit, 4 weeks after use): test product was better at reducing wrinkles than control product
- expert visual assessment score ([3]; 2 weeks after use): 2.17 ± 0.75
- expert visual assessment score ([3]; 4 weeks after use): 1.67 ± 1.03
- expert visual assessment score ([3]; Before use): 2.17 ± 0.75
- Change(%) in expert visual assessment score ([3]; Before use-2 weeks after use): 0%
- Change(%) in expert visual assessment score ([3]; Before use-4 weeks after use): −23.08%
- R3 numerical value (average roughness) [4]: 34.24 ± 3.51
- Ra numerical value (roughness average of wrinkle profile) ([5]; 2 weeks after use, twice daily): 18.20 ± 3.94
- Rt numerical value (distance between highest peak and lowest valley) ([5]; 2 weeks after use, twice daily): 187.85 ± 34.10
- Rmax numerical value (maximum height of wrinkle profile) ([5]; 2 weeks after use, twice daily): 168.83 ± 29.61
- Rp numerical value (maximum profile peak height) ([5]; 2 weeks after use, twice daily): 116.47 ± 35.75
- Rv numerical value (maximum profile valley depth) ([5]; 2 weeks after use, twice daily): 71.38 ± 16.44
- Ra numerical value (roughness average of wrinkle profile) ([5]; 4 weeks after use, twice daily): 17.00 ± 3.88
- Rt numerical value (distance between highest peak and lowest valley) ([5]; 4 weeks after use, twice daily): 184.63 ± 36.83
- Rmax numerical value (maximum height of wrinkle profile) ([5]; 4 weeks after use, twice daily): 168.80 ± 33.21
- Rp numerical value (maximum profile peak height) ([5]; 4 weeks after use, twice daily): 121.88 ± 38.06
- Rv numerical value (maximum profile valley depth) ([5]; 4 weeks after use, twice daily): 62.75 ± 11.92
- Ra numerical value (roughness average of wrinkle profile) ([5]; Before use): 19.19 ± 4.27
- Rt numerical value (distance between highest peak and lowest valley) ([5]; Before use): 195.05 ± 31.31
- Change(%) in Ra ([5]; Before use-2 weeks after use): −5.15%
- Change(%) in Rmax ([5]; Before use-2 weeks after use): −4.23%
- Change(%) in Rp ([5]; Before use-2 weeks after use): −5.10%
- Change(%) in Rt ([5]; Before use-2 weeks after use): −3.69%
- Change(%) in Rv ([5]; Before use-2 weeks after use): −1.30%
- Change(%) in Ra ([5]; Before use-4 weeks after use): −11.42%
- Change(%) in Rmax ([5]; Before use-4 weeks after use): −4.25%
- Change(%) in Rp ([5]; Before use-4 weeks after use): −0.70%
- Change(%) in Rt ([5]; Before use-4 weeks after use): −5.35%
- Change(%) in Rv ([5]; Before use-4 weeks after use): −13.24%
- Rmax numerical value (maximum height of wrinkle profile) ([5]; Before use): 176.29 ± 27.79
- Rp numerical value (maximum profile peak height) ([5]; Before use): 122.73 ± 31.55
- Rv numerical value (maximum profile valley depth) ([5]; Before use): 72.32 ± 17.16
